From US20240041827A1, “COMPOSITIONS FOR THE TREATMENT OF FAT RELATED CONDITIONS AND DISORDERS” (priority 2020, published 2024)

What was measured:
[1] = test system: human visceral preadipocytes; experiment: in vitro; details: for Average RZL-012 and collagenase induced cell death (% vs untreated cells): RZL12 0 μM, 24 h of incubation
Protocol: Human visceral preadipocytes were seeded in 96-well white clear bottom plates at 10,000 cells per well in 100 μl pre-adipocyte medium and incubated overnight at 37° C. 5% CO2. On the following day, adipogenic differentiation was induced by addition of 100 μl/well differentiation medium and incubation continued for 5 days. Adipogenic differentiation was verified by microscopic evaluation, addition of adipored reagents and fluorescent measurement at Ex485 nm/Em572 nm. […] Staurosporine (1 μM) and 0.2% DMSO were used as controls. Plates were incubated at 37° C. 5% CO2 for 2, 6 and 24 hours. Following incubation, cytotoxicity was measured using Cell Titer Glo 2.0 (Promega).
Test Item RZL-12 (1-300 μM) was prepared on the day of the testing as 150 mM stock solutions in DMSO. The 150 mM represents a 500×stock of the highest desired tested concentration. The 150 mM stock solution was first serially diluted in DMSO to acquire 500×stock solutions for each of the RZL-012 concentrations. The 500×stock solutions were then diluted 1:25 in medium to acquire 20×intermediate stock solutions. Finally, the 20×intermediate stock solutions were further diluted 1:20 in the assay (on the plate) that included seeded cells.
The 600 μM represents a 20× stock of the highest desired tested concentration. […] Finally, the 20×intermediate stock solutions were further diluted 1:20 in the assay plate that included seeded cells.
Human visceral pre-adipocytes (HPrAD-vis): HPrAD-vis cells (Lonza cat #PT-5005) were thawed at 37° C. and transferred into 50 ml tubes containing pre-adipocytes PGM-2 growth medium (PBM-2, 10% FBS, 1-glutamine, GA-1000). Cells were centrifuged at 300 g for 10 minutes, the supernatant was removed (Leaving about 1 ml of wash medium for not disrupting the cells) and 2 ml fresh PGM-2 medium was added. After resuspension, cells were counted and seeded in T-75 and T25 flasks at a density of 9,000 cells/cm^2 ([…], 225,000 cells/T25 flask). Medium was changed every 2-3 days until reached confluence of 70%.
Cells were sub-cultured only once, as soon as they reached 70% confluence. For this purpose, the culture medium of each flask was removed and cells were washed once with 5 ml PBS. The flask was shaken to ensure that the entire surface was covered and the PBS was removed. Then, 3 ml/T75 flask or 1 ml/T25 flask of fresh dedicated Trypsin/EDTA solution (from Lonza) was added and the flasks were incubated for 3-4 minutes at RT until ˜90% cells were detached. The Trypsin/EDTA solution was then neutralized by addition of 6 ml/T75 flask or 3 ml/T25 flask of full PGM-2 growth medium. Cells were collected in 50 ml tubes and centrifuged 10 minutes at 300 g. The supernatant was removed and the cells were resuspended in 3 ml fresh medium. Cells were then counted using a haemacytometer slide after being diluted 1:2 in trypan blue (SIGMA). For sub-culturing, cells were seeded in new T75 flasks at a density of 9,000 cells/cm^2 containing 15 ml fresh growth medium. Alternatively, the cells were seeded in 96-well culture plates at a density of 10,000 cells/well for the cell treatments.
HPrAD-vis cells: HPrAD-vis passaged once were seeded in 96-well plates as described above (10000cells/well in 100 μl medium) and allowed to settle overnight at 37° C., 5% CO2. Following day, adipogenic differentiation was induced by addition of 100 μl/well differentiation medium and incubated for 5 days. Adipogenic differentiation was verified by microscopic evaluation, addition of adipored reagents and fluorescent measurement at Ex485 nm/Em572 nm. In the morning of day 6, test and reference items were prepared as described above. Cells' medium was replaced with 90 μl fresh differentiation medium. […] Staurosporine (1 μM) and 0.2% DMSO were used as controls. Plates were incubated at 37° C. 5% CO2 for 2, 6 and 24 hours. Following incubation, cell viability was determined using the CellTiter-Gg® viability reagent (Promega) with reading of plates for luminescence. […]

[2] = test system: Wi-38 fibroblasts; experiment: Cell Titer Glo 2.0 cytotoxicity assay on Wi-38 fibroblasts; format: cell-based; details: cytotoxic reference control; after 24 hours of incubation

| Compound | Average RZL-012 and collagenase induced cell death (% vs untreated cells) ([1]; Collagenase 0.1 μM) [%] | Average RZL-012 and collagenase induced cell death (% vs untreated cells) ([1]; Collagenase 0.3 μM) [%] | Average RZL-012 and collagenase induced cell death (% vs untreated cells) ([1]; Collagenase 1 μM) [%] | Average RZL-012 and collagenase induced cell death (% vs untreated cells) ([1]; Collagenase 3 μM) [%] | Average RZL-012 and collagenase induced cell death (% vs untreated cells) ([1]; Collagenase 10 μM) [%] | Average RZL-012 and collagenase induced cell death (% vs untreated cells) ([1]; Collagenase 30 μM) [%] | concentrations at which the cytotoxic effect was observed ([1]; at all time points (2, 6, 24 h)) [µM] | effect of collagenase on RZL-012 cytotoxicity ([1]; collagenase 10 μM and 30 μM, 2 h time point) | effect of collagenase added together with RZL-012 on cell cytotoxicity ([1]; collagenase 0.1-1 μM, adipocytes, 6 h and 24 h time points, vs each compound alone) | maximal cell death ([1]; 24 h, 1 µM) [%] | maximal cell death [2] [%] |
| --- | --- | --- | --- | --- | --- | --- | --- | --- | --- | --- | --- |
| Collagenase | 7.28 | 6.53 | 25.57 | 33.27 | 65.68 | 79.93 | > 3 | attenuated RZL-012 cytotoxicity | attenuate cell cytotoxicity | – | – |
| CN[C@@H]1C[C@H]2O[C@@](C)([C@@H]1OC)n1c3ccccc3c3c4c(c5c6ccccc6n2c5c31)C(=O)NC4 [staurosporine, reference compound] | – | – | – | – | – | – | – | – | – | 89 | 89 |
